Publication PMC4977651, “Molecular features of biguanides required for targeting of mitochondrial respiratory complex I and activation of AMP-kinase” (BMC Biology, 2016)
Where “and” joins values, the source holds several entries; their conditions need not be identical. Equal values may be shown once.

Key:
[1] = molecular target: isolated bovine heart complex I (Bos taurus, UniProt P03887+P03898+P17694+P42026); experiment: NADH:decylubiquinone oxidoreduction by isolated complex I; assay type: biochemical; details: bovine heart purified mitochondrial complex I, read-out: average % (rate, % of no-inhibitor control)
isolated bovine heart complex I, sequence (P42026 38-216): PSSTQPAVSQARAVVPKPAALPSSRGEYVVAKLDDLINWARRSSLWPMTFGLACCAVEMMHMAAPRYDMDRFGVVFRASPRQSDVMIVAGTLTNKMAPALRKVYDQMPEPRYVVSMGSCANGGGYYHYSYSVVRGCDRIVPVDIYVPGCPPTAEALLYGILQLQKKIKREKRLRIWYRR
isolated bovine heart complex I, sequence (P17694 34-463): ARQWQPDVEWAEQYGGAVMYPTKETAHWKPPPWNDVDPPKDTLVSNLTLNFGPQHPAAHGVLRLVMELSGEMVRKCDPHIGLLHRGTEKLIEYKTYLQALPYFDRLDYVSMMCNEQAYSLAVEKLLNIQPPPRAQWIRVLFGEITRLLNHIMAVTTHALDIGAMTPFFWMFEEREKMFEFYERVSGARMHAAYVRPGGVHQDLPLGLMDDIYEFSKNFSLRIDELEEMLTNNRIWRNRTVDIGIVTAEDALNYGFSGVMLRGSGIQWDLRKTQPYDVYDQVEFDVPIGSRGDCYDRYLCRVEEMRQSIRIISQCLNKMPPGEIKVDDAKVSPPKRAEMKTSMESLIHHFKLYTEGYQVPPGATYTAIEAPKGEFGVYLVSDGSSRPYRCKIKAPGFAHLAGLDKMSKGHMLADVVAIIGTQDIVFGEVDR
isolated bovine heart complex I, sequence (P03898 whole entry): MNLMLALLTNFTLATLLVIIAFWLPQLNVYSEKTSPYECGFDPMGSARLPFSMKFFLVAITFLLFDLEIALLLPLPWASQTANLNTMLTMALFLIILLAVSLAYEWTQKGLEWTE
isolated bovine heart complex I, sequence (P03887 whole entry): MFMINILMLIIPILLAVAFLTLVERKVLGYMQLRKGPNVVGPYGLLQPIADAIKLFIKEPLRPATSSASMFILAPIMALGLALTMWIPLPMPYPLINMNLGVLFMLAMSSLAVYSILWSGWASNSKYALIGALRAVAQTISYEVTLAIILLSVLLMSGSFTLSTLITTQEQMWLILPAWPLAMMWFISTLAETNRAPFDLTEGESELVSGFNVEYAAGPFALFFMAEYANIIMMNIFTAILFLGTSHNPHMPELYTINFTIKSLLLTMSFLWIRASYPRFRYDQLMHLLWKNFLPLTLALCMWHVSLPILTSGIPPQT
Description: (§1) Complex I and mitochondrial membranes were prepared from Bos taurus (bovine) heart. Intact mitochondria were isolated from rat liver and mouse heart and liver. Membranes were prepared from mouse heart mitochondria by 5 s bursts of sonication at 4 °C and collected by centrifugation (75,000 × g, 1 h).
(§2) Assays were performed at 32 °C in a SpectraMax 96-well plate reader. NADH:decylubiquinone oxidoreduction by complex I at 0.5 μg mL^−1 was measured in 20 mM Tris-HCl (pH 7.2), 0.15 % soy bean asolectin (Avanti Polar Lipids), and 0.15 % 3-((3-cholamidopropyl)dimethylammonium)-1-propanesulfonate (CHAPS, Merck Chemicals Ltd), with 200 μM decylubiquinone and 200 μM NADH, and monitored using ε340–380(NADH) = 4.81 mM^−1 cm^−1 [23]. Catalysis was initiated by addition of NADH and maximal rates determined by linear regression. NADH:O2 oxidoreduction by membranes was measured similarly but using 5 μg mL^−1 membranes in 10 mM Tris-HCl (pH 7.4) and 250 mM sucrose using 200 μM NADH and supplemented with 0.15 mM horse heart cytochrome c (Sigma-Aldrich Ltd.). Succinate:O2 oxidoreduction was measured using 40 μg mL^−1 membranes in 5 mM succinate in 10 mM Tris-HCl (pH 7.4) as described previously. Control experiments included NaCl (to match the ionic strength) or DMSO, as appropriate.
(§3) Experimental values are reported as mean averages ± standard deviation (SD) of technical replicates for large sample sizes and mean averages ± standard error of the mean (SEM) of technical replicates for small sample sizes. Data were analyzed by the unpaired two-tailed Student’s t test. IC50 values were determined using the standard dose-effect relationship (activity (%) = 100 × IC50 / (IC50 + [inhibitor]^m) with the Hill Slope (m) set to unity for purified complex I) and are reported with 95 % confidence intervals.

[2] = molecular target: bovine heart mitochondrial membranes (complex I) (Bos taurus, UniProt P03887+P03898+P17694+P42026); experiment: NADH:O2 oxidoreduction by bovine heart mitochondrial membranes (complexes I-III-IV); assay type: biochemical; details: bovine heart mitochondrial membranes, read-out: average % (rate, % of no-inhibitor control)
bovine heart mitochondrial membranes (complex I), sequence (P42026 38-216): as the sequence (P42026 38-216) above
bovine heart mitochondrial membranes (complex I), sequence (P17694 34-463): as the sequence (P17694 34-463) above
bovine heart mitochondrial membranes (complex I), sequence (P03887 whole entry): as the sequence (P03887 whole entry) above
bovine heart mitochondrial membranes (complex I), sequence (P03898 whole entry): as the sequence (P03898 whole entry) above
Description: as §1, §2, §3

[3] = molecular target: mouse heart mitochondrial membranes (complex I) (Mus musculus, UniProt P03888+P03899+Q91WD5+Q9DC70); experiment: NADH:O2 oxidoreduction by mouse heart mitochondrial membranes; assay type: biochemical; details: read-out: average % (rate, % of no-inhibitor control)
mouse heart mitochondrial membranes (complex I), sequence (P03899 whole entry): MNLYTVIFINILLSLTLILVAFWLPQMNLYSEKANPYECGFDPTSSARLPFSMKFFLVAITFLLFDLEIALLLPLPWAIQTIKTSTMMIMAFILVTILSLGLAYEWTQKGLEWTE
mouse heart mitochondrial membranes (complex I), sequence (P03888 whole entry): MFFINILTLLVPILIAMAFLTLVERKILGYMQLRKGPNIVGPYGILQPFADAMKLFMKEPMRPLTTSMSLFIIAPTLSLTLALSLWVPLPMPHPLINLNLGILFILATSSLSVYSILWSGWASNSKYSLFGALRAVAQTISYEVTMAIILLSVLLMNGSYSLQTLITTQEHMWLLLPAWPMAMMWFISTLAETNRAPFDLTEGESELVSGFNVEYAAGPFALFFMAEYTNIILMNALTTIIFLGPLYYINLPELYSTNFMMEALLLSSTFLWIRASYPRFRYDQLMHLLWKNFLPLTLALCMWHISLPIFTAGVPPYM
mouse heart mitochondrial membranes (complex I), sequence (Q9DC70 36-224): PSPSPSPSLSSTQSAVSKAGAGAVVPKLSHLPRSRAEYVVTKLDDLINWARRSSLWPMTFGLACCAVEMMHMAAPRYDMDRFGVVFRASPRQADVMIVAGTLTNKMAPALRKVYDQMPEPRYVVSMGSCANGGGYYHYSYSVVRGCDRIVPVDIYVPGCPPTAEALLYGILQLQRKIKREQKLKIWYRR
mouse heart mitochondrial membranes (complex I), sequence (Q91WD5 34-463): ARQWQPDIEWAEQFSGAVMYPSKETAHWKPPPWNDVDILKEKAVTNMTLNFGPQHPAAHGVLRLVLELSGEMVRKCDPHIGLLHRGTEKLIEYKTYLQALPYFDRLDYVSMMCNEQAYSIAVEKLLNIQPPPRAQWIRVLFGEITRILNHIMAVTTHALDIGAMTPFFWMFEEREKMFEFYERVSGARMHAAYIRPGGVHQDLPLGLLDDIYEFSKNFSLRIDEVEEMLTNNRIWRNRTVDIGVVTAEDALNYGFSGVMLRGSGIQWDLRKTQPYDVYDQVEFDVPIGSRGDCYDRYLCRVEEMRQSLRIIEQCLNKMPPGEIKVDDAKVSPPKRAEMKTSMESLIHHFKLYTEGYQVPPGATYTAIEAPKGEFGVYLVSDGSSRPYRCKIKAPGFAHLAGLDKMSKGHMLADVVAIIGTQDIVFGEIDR
Description: as §1, §2, §3

143B cells = experiment: Membrane potential measurement by TMRM fluorescence; assay type: cell-based, human
Description: 143B cells were seeded at 5 × 10^5 cells per 10 cm^2 well in DMEM containing 10 % FBS. […] The detached cells from each well were incubated in PBS containing 25 pg/mL tetramethylrhodamine, methyl ester (TMRM) and 20 μg/mL Hoescht stain for 20 min at 37 °C then washed twice and re-suspended in 200 μL PBS. TMRM fluorescence was detected using a NucleoCounter® NC 3000 cytometer with excitation at 530 nm and emission at 575 nm, with the Hoescht stain used to check for consistent cell density between samples.

## N=C(N)N=C(N)Nc1ccccc1 [compound2]
[1]; inhibitor 0.05 mM
  remaining activity at 50 µM: 89%
[1]; inhibitor 0.10 mM
  remaining activity at 100 µM: 82.1%
[1]; inhibitor 0.20 mM
  remaining activity at 200 µM: 70%
[1]; inhibitor 0.40 mM
  remaining activity at 400 µM: 50.6%
[1]; inhibitor 1.00 mM
  remaining activity at 1000 µM: 33.6%
[1]; inhibitor 2.00 mM
  remaining activity at 2000 µM: 17.4%
[1]; inhibitor 2.50 mM
  remaining activity at 2500 µM: 15.2%
[2]; inhibitor 0.025 mM
  remaining activity at 25 µM: 91.2%
[2]; inhibitor 0.05 mM
  remaining activity at 50 µM: 80.9%
[2]; inhibitor 0.12 mM
  remaining activity at 120 µM: 74.7%
[2]; inhibitor 0.25 mM
  remaining activity at 250 µM: 59.3%
[2]; inhibitor 0.50 mM
  remaining activity at 500 µM: 43.6%
[2]; inhibitor 1.25 mM
  remaining activity at 1250 µM: 32%
[2]; inhibitor 2.50 mM
  remaining activity at 2500 µM: 21.2%
[3]; inhibitor 0.025 mM
  remaining activity at 25 µM: 100%
[3]; inhibitor 0.05 mM
  remaining activity at 50 µM: 91.6%
[3]; inhibitor 0.13 mM
  remaining activity at 130 µM: 95.5%
[3]; inhibitor 0.25 mM
  remaining activity at 250 µM: 81.9%
[3]; inhibitor 0.50 mM
  remaining activity at 500 µM: 59.6%
[3]; inhibitor 1.25 mM
  remaining activity at 1250 µM: 40.4%
[3]; inhibitor 2.50 mM
  remaining activity at 2500 µM: 27%

## N#CC(C#N)=NNc1ccc(OC(F)(F)F)cc1 [FCCP, carbonyl cyanide-4-(trifluoromethoxy)phenylhydrazone]
143B cells; after 6.5 h, phenformin at IC50/10 (34 μM), FCCP at 1 μM, n = 3
  TMRM fluorescence, % of the control value: 13.43 ± 1.7%
143B cells; individual replicates, phenformin 6.5 hours
  mean-y (TMRM): 1862.7 and 2673.4 and 1873.5
143B cells; n 3, phenformin 6.5 hours
  TMRM average: 2136.53
  TMRM average, % control: 13.43 % control
